US8273769B2, “Phenoxy acetic acid derivatives” (Merck Serono SA, priority 2009, dated 2012)

How the values were obtained:
[1] = biological target: T1, CRTH2 (Homo sapiens, UniProt Q9Y5Y4); test: Radioligand binding Scintillation Proximity Assay ([3H]PGD2, hCRTH2-CHO cell membranes); design: host or cells: CHO cells; conditions: 1.5 nM [3H]PGD2, hCRTH2-CHO cell membranes, SPA
T1 sequence (Q9Y5Y4 1-395): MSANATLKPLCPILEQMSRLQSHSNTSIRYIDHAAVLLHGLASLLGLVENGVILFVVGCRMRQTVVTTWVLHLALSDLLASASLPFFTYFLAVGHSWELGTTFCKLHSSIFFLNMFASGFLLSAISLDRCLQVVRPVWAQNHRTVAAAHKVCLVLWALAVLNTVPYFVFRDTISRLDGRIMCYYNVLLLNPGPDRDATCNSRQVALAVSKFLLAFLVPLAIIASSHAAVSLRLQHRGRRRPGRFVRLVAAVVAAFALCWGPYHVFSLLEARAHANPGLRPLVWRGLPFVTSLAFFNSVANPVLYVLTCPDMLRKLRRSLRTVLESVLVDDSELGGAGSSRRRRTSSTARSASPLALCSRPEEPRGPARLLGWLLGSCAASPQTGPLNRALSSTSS
How it was run: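 SPA competition binding at room temperature, 90 min with agitation: 1.5 nM [3H]PGD2, 10-50 μg/ml hCRTH2-CHO membrane protein, WGA SPA beads, HEPES pH 7.4 with 10 mM MnCl2, 1% DMSO. Non-specific binding defined with 10 μM PGD2; scintillation counting.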

[2] = tested on: eosinophils in human whole blood; test: PGD2-induced eosinophil cell shape assay in human whole blood; type: cell-based; conditions: 10 nM PGD2 final, flow cytometry
Experimental: The Compounds of Formula (I) were diluted in dimethylsulphoxide so that the total volume of dimethylsulfoxide was kept constant at 2% dimethylsulphoxide (Me2SO). Serial dilutions of 200 μM to 0.09 μM were prepared. Samples of 90 μl of human blood from healthy volunteers (Centre de Transfusion Sanguine de Genève) were pre-incubated in polypropylene Falcon tubes (BD 352063) for 20 minutes in a water bath at 37° C. with 10 μl of diluted compounds. For CRTH2 activation, 100 μl PGD2 (Cayman 12010) at 20 nM was added (10 nM final) to each tube and cells were maintained at 37° C. For negative control cells were treated with PBS. After 10 minutes, cell activation was stopped with 120 μl Formaldehyde 10% (4% final, Fluka 41650) and cells were rested for 10 minutes at room temperature. Fixed cells were transferred into polypropylene tubes and then treated for 1 hour in a water bath at 37° C. with 2 ml of Triton-Surfact-Amps X-100 (Pierce 28314) at 0.166% (0.13% Triton final). After several washes with PBS (red cells lysed progressively during washes, two washes are necessary), cells were analyzed by flow cytometry on a FACSCalibur. In one embodiment, the compounds of Formula (I) of the present invention are capable of blocking the cell shape change of eosinophils induced by PGD2 in Whole Blood.

[3] = biological target: T1, CRTH2; test: Cellular Dielectric Spectroscopy (CHO-CRTH2 cells); type: cell-based; design: expressed in transfected cells; host or cells: CHO-CRTH2 cells; conditions: antagonist mode, fixed concentration of PGD2 (EC80)
How it was run: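 Label-free cellular dielectric spectroscopy measured impedance changes (dZ) in CHO-CRTH2 cells. The cells were grown in HAM's F12 with 10% foetal calf serum and 400 μg/ml Geneticin, plated at 100000 cells/well in 96W electrode microplates, and kept 24 hours at 37° C. in 5% CO2. They were then washed twice with 135 μl of HBSS/10 mM HEPES pH 7.4/1% DMSO buffer. Signal was the max-min amplitude, with basal and maximum activity defined without and with PGD2 (EC80).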

IC50 [1] [nM]	IC50 [2] [nM]	IC50 [3] [nM]	SMILES
14			O=C(O)COc1ccc(Cl)cc1C#Cc1ccc2c(c1)S(=O)(=O)c1ccccc1-2 [Example 154, {4-chloro-2-[(5,5-dioxidodibenzo[b,d]thien-3-yl)ethynyl]phenoxy}acetic acid]
10	150	22	CCCS(=O)(=O)c1cccc(C#Cc2cc(Cl)ccc2OCC(=O)O)c1 [Example 17, (4-chloro-2-{[3-(propylsulfonyl)phenyl]ethynyl}phenoxy)acetic acid]
5	91	16	CC(C)S(=O)(=O)c1ccc(F)c(C#Cc2cc(Cl)ccc2OCC(=O)O)c1 [Example 102, (4-chloro-2-{[2-fluoro-5-(isopropylsulfonyl)phenyl]ethynyl}phenoxy)acetic acid]
4	23	23	CN(C)S(=O)(=O)c1ccc(F)c(C#Cc2cc(Cl)ccc2OCC(=O)O)c1 [Example 107, [4-chloro-2-({5-[(dimethylamino)sulfonyl]-2-fluorophenyl}ethynyl)phenoxy]acetic acid]
6	23	29	CCCS(=O)(=O)c1ccc(F)c(C#Cc2cc(Cl)ccc2OCC(=O)O)c1 [Example 89, (4-chloro-2-{[2-fluoro-5-(propylsulfonyl)phenyl]ethynyl}phenoxy)acetic acid]
3	23	38	CCCS(=O)(=O)c1ccc(Cl)c(C#Cc2cc(Cl)ccc2OCC(=O)O)c1 [Example 101, (4-chloro-2-{[2-chloro-5-(propylsulfonyl)phenyl]ethynyl}phenoxy)acetic acid]
5	81	32	CCCS(=O)(=O)c1ccc(C)c(C#Cc2cc(Cl)ccc2OCC(=O)O)c1 [Example 38, (4-chloro-2-{[2-methyl-5-(propylsulfonyl)phenyl]ethynyl}phenoxy)acetic acid]
55	289	23	CN(C)S(=O)(=O)c1cncc(C#Cc2cc(Cl)ccc2OCC(=O)O)c1 [Example 35, [4-chloro-2-({5-[(dimethylamino)sulfonyl]pyridin-3-yl}ethynyl)phenoxy]acetic acid]
4	67	44	CC(C)S(=O)(=O)c1ccc(Cl)c(C#Cc2cc(Cl)ccc2OCC(=O)O)c1 [Example 103, (4-chloro-2-{[2-chloro-5-(isopropylsulfonyl)phenyl]ethynyl}phenoxy)acetic acid]
